Measured values as given in ChEMBL document CHEMBL1201862, “PubChem BioAssay data set” (2004).
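Briefly, cells in 96-well plates were exposed to five compound concentrations for 48 h, and endpoints were estimated by linear interpolation. GI50 is the concentration that inhibits growth by half.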 Calls of active or inactive are those of the source. No stated cut-off is given here; in the data, active = GI50 up to about 1.1 µM and inactive = higher.

Experiments:
Experiment in all cases: inhibition of tumour cell growth, NCI panel, 48 h
786-0 = system: 786-0
A498 = system: A498
A549 = system: A549
ACHN = system: ACHN
CAKI-1 = system: CAKI-1
CCRF-CEM = system: CCRF-CEM
COLO 205 = system: COLO 205
DU-145 = system: DU-145
EKVX = system: EKVX
HCC 2998 = system: HCC 2998
HCT-116 = system: HCT-116
HCT-15 = system: HCT-15
HL-60 = system: HL-60
HOP-62 = system: HOP-62
HOP-92 = system: HOP-92
HT-29 = system: HT-29
Hs-578T = system: Hs-578T
K562 = system: K562
KM12 = system: KM12
LOX IMVI = system: LOX IMVI
M14 = system: M14
MCF7 = system: MCF7
MDA-MB-231 = system: MDA-MB-231
MDA-MB-435 = system: MDA-MB-435
MOLT-4 = system: MOLT-4
Malme-3M = system: Malme-3M
NCI-H226 = system: NCI-H226
NCI-H23 = system: NCI-H23
NCI-H460 = system: NCI-H460
NCI/ADR-RES = system: NCI/ADR-RES
OVCAR-3 = system: OVCAR-3
OVCAR-4 = system: OVCAR-4
OVCAR-5 = system: OVCAR-5
OVCAR-8 = system: OVCAR-8
PC-3 = system: PC-3
RPMI-8226 = system: RPMI-8226
RXF 393 = system: RXF 393
SF-268 = system: SF-268
SF-295 = system: SF-295
SF-539 = system: SF-539
SK-MEL-28 = system: SK-MEL-28
SK-MEL-2 = system: SK-MEL-2
SK-MEL-5 = system: SK-MEL-5
SK-OV-3 = system: SK-OV-3
SN12C = system: SN12C
SNB-19 = system: SNB-19
SNB-75 = system: SNB-75
SR = system: SR
SW-620 = system: SW-620
T47D = system: T47D
TK-10 = system: TK-10
U-251 = system: U-251
UACC-257 = system: UACC-257
UACC-62 = system: UACC-62
UO-31 = system: UO-31
IGROV-1 = system: IGROV-1
MDA-N = system: MDA-N
NCI-H522 = system: NCI-H522

Measured: GI50

O=C(c1cccs1)c1nccc2c1cnc1ccccc12
inactive: 786-0 68.5 µM | A498 63.8 µM | A549 > 100 µM | ACHN 38.5 µM | CAKI-1 41.5 µM | CCRF-CEM > 100 µM | COLO 205 > 100 µM | DU-145 > 100 µM | EKVX > 100 µM | HCC 2998 > 100 µM | HCT-116 90.8 µM | HL-60 > 100 µM | HOP-62 28.7 µM | HOP-92 36.6 µM | HT-29 > 100 µM | Hs-578T 94.6 µM | K562 > 100 µM | KM12 > 100 µM | LOX IMVI > 100 µM | M14 > 100 µM | MCF7 20.3 µM | MDA-MB-231 > 100 µM | MDA-MB-435 > 100 µM | MOLT-4 > 100 µM | Malme-3M > 100 µM | NCI-H226 > 100 µM | NCI-H23 92.7 µM | NCI-H460 > 100 µM | NCI/ADR-RES > 100 µM | OVCAR-3 > 100 µM | OVCAR-4 > 100 µM | OVCAR-5 > 100 µM | OVCAR-8 31.4 µM | PC-3 > 100 µM | RPMI-8226 > 100 µM | SF-268 26.2 µM | SF-295 > 100 µM | SF-539 > 100 µM | SK-MEL-28 > 100 µM | SK-MEL-2 > 100 µM | SK-MEL-5 > 100 µM | SK-OV-3 > 100 µM | SN12C > 100 µM | SNB-19 > 100 µM | SNB-75 43.7 µM | SR > 100 µM | SW-620 > 100 µM | T47D > 100 µM | TK-10 > 100 µM | U-251 41.2 µM | UACC-257 > 100 µM | UACC-62 > 100 µM | UO-31 > 100 µM
> 100 µM: HCT-15
active: RXF 393 0.0113 µM

CC(=O)OCC1OC(n2c(-c3ccc(C)cc3)cc(-c3ccco3)c(C#N)c2=O)C(OC(C)=O)C(OC(C)=O)C1OC(C)=O (stereo not given)
inactive: HL-60 2.72 µM | NCI-H460 2.59 µM

Cc1ccccc1NC(=O)Cc1csc(N/N=C2\NC(=O)/C(=C/c3cccc([N+](=O)[O-])c3)S2)n1
15.8 µM: HCT-15
inactive: 786-0 45.2 µM | A549 16.7 µM | ACHN 15.6 µM | CAKI-1 19.7 µM | COLO 205 34.2 µM | DU-145 36.1 µM | EKVX 13.5 µM | HCC 2998 14.3 µM | HCT-116 36.7 µM | HL-60 17.8 µM | HOP-62 22.9 µM | HOP-92 15.8 µM | HT-29 34.7 µM | IGROV-1 14.1 µM | KM12 16.6 µM | LOX IMVI 30.3 µM | M14 17 µM | MCF7 41.8 µM | MDA-MB-231 21.7 µM | MDA-MB-435 19.8 µM | MDA-N 30.5 µM | MOLT-4 23.9 µM | NCI-H226 17.8 µM | NCI-H23 19.1 µM | NCI-H460 15.6 µM | NCI/ADR-RES 31.3 µM | OVCAR-3 19.7 µM | OVCAR-4 20.6 µM | OVCAR-5 22.6 µM | OVCAR-8 31.8 µM | PC-3 16.6 µM | SF-295 18.1 µM | SF-539 17.1 µM | SK-MEL-28 19.1 µM | SK-MEL-2 26.4 µM | SK-MEL-5 23.9 µM | SK-OV-3 53.1 µM | SN12C 36.6 µM | SNB-19 16.1 µM | SNB-75 13.1 µM | SW-620 40.6 µM | T47D 17.1 µM | TK-10 18.9 µM | U-251 21.5 µM | UACC-257 20.3 µM | UO-31 13.1 µM

N=C(N)NCCCC(NC(=O)c1cccc2c(=O)c3ccccc3[nH]c12)C(=O)O (stereo not given)
> 100 µM: HCT-15
inactive: 786-0 > 100 µM | A498 > 100 µM | A549 > 100 µM | ACHN > 100 µM | CCRF-CEM > 100 µM | COLO 205 > 100 µM | DU-145 > 100 µM | EKVX > 100 µM | HCT-116 > 100 µM | HL-60 > 100 µM | HOP-62 > 100 µM | HOP-92 58.9 µM | HT-29 > 100 µM | Hs-578T > 100 µM | IGROV-1 > 100 µM | K562 > 100 µM | KM12 > 100 µM | LOX IMVI > 100 µM | M14 > 100 µM | MCF7 > 100 µM | MDA-MB-231 > 100 µM | MDA-MB-435 > 100 µM | MDA-N > 100 µM | MOLT-4 > 100 µM | Malme-3M > 100 µM | NCI-H226 > 100 µM | NCI-H23 > 100 µM | NCI-H522 > 100 µM | NCI/ADR-RES > 100 µM | OVCAR-3 > 100 µM | OVCAR-4 > 100 µM | OVCAR-5 > 100 µM | OVCAR-8 > 100 µM | PC-3 > 100 µM | RPMI-8226 > 100 µM | SF-268 > 100 µM | SF-295 > 100 µM | SK-MEL-28 > 100 µM | SK-MEL-2 > 100 µM | SK-MEL-5 > 100 µM | SK-OV-3 > 100 µM | SN12C > 100 µM | SNB-19 > 100 µM | SNB-75 > 100 µM | SR > 100 µM | SW-620 > 100 µM | TK-10 > 100 µM | U-251 > 100 µM | UACC-62 > 100 µM | UO-31 > 100 µM
